Measured values taken from US5726195A, “Aminoacyl adenylate mimics as novel antimicrobial and antiparasitic agents” (Cubist Pharmaceuticals, Inc., priority 1996, dated 1998).
Values after ≈ are worked out from the molar mass of the structure shown.

Legend:
[1] = system: Streptococcus pyogenes (ATCC 8668); experiment: Mouse protection test against wild type Streptococcus pyogenes; type: in vivo, Streptococcus pyogenes; female CD-1 mice; details: 0.08 mg/kg sc, repeated at 4 hours, 7 days
[2] = system: S. pyogenes ATCC 8668; experiment: Whole cell antimicrobial screen, MIC; type: cell-based; details: Streptococcus pyogenes, ATCC8668
How it was run: (§1)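 MIC = lowest compound concentration inhibiting growth, judged from optical density after overnight incubation at 30° C.-37° C. Inoculum was 5×10^4 cells per well in media such as Mueller-Hinton Broth, with twofold dilutions spanning 0.1 μg/mL-500 μg/mL.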

[3] = system: S. pneumonia ATCC 49619; experiment: Whole cell antimicrobial screen, MIC; type: cell-based
How it was run: as §1

[4] = system: S. aureus ATCC 6538P; experiment: Whole cell antimicrobial screen, MIC; type: cell-based; details: Staphylococcus aureus, ATCC6538P
How it was run: as §1

[5] = system: multidrug resistant Streptococcus pyogenes (#OTTO 209); experiment: Mouse protection test against multidrug resistant Streptococcus pyogenes; type: in vivo, Streptococcus pyogenes; female CD-1 mice; details: for Protective % / Number of Alive: repeated at 4 hours, 7 days; for Number of Alive: of 5 mice
Description: The mouse protection test is an industry standard for measuring the efficacy of a test compound in vivo [for examples of this model see J. J. Clement, et al., Antimicrobial Agents and Chemotherapy, 38 (5), 1071-1078, (1994)]. As exemplified below, this test was used to show the in vivo efficacy of the compounds of the present invention against bacteria.
The in vivo activity of compound X against multidrug resistant bacteria was established by infecting female CD-1 mice (Charles River Lab, Massachusettes) weighing 20-24 g intraperitoneally with multidrug resistant Streptococcus pyogenes inoculum. The inoculum was prepared from multidrug resistant Streptococcus pyogenes (resistant to erythromycin, tetracycline, and chloramphenicol, #OTTO 209 obtained from Dr. Pentti Huovinen, National Public Health Institute, Finland) which was cultured in brain heart infusion broth (Baltimore Biological Laboratories, Maryland) at 37° C. for 2 hr, and then 0.1 ml of the culture was diluted with the medium to 1.0 ml for reading its OD at 600 nm (0.12). The turbidity of a 0.5 McFarland standard is equivalent to OD600 0.1, or 10^8 cfu/ml. Then, 4×10^8 cfu of the bacteria (333 μl was added to 20 ml of phosphate buffered saline (Sigma P-0261 ) containing 10 % hog gastric mucin (Sigma M-2378). All animals were injected with 0.5 ml of the inoculum, equivalent to 10^7 cfu/mouse which is the dose causing ~100% death of the animals without treatment.
Compound X (60 mg) was dissolved in 6.0 ml of 0.05M Tris.HCl (pH 8.8) to give a solution of 10 mg/ml. This solution was serially diluted two times with 0.05M Tris.HCl by 5-fold (1.0 ml to 5.0 ml) to give 2 and 0.4 mg/ml solutions. The known antibiotic vancomycin HCl (Sigma V-2002, in normal saline, 1 mg/ml, pH 6.0-7.0) was used as a positive control. All the solutions were filtered with 0.2 μm Nalgene syringe filter. Immediately after the bacterial inoculation, group 1 animals were subcutaneously (sc) injected with 0.05M Tris.HCl (no antibiotic) and groups 2 to 4 were given compound X sc at 4, 20 and 100 mg/kg, respectively. Group 5 animals received vancomycin sc at 10 mg/kg. These injections were repeated once at 4 hours after the inoculation for the respective groups. The injection volume at each time was 10 ml per kilogram of body weight. The 50% protective dose (PD50) is calculated on the basis of the number of mice surviving 7 days after inoculation.

[6] = biological target: E. Coli. IleRS (isoleucyl-tRNA synthetase) (Escherichia coli, UniProt P00956); experiment: Inhibition of isoleucyl-tRNA synthetase (aminoacylation of tRNA with [3H]isoleucine); type: biochemical; details: read-out: IC50 E.Coli. IleRS; E. coli enzyme; irreversible inhibitors: values are 50% of the active enzyme concentration
How it was run: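 Enzyme (0.08-2.0 nM, preferably 0.4 nM) preincubated 20 min at 25° C. with compound, then reacted at 25° C. with 4 mM ATP, 5-20 μM [3H]isoleucine, 90 μM crude or 2 μM specific tRNA in HEPES pH 7.5. TCA-precipitable radioactivity counted; IC50 relative to uninhibited activity.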

Sequence of E. Coli. IleRS (isoleucyl-tRNA synthetase) (P00956 whole entry): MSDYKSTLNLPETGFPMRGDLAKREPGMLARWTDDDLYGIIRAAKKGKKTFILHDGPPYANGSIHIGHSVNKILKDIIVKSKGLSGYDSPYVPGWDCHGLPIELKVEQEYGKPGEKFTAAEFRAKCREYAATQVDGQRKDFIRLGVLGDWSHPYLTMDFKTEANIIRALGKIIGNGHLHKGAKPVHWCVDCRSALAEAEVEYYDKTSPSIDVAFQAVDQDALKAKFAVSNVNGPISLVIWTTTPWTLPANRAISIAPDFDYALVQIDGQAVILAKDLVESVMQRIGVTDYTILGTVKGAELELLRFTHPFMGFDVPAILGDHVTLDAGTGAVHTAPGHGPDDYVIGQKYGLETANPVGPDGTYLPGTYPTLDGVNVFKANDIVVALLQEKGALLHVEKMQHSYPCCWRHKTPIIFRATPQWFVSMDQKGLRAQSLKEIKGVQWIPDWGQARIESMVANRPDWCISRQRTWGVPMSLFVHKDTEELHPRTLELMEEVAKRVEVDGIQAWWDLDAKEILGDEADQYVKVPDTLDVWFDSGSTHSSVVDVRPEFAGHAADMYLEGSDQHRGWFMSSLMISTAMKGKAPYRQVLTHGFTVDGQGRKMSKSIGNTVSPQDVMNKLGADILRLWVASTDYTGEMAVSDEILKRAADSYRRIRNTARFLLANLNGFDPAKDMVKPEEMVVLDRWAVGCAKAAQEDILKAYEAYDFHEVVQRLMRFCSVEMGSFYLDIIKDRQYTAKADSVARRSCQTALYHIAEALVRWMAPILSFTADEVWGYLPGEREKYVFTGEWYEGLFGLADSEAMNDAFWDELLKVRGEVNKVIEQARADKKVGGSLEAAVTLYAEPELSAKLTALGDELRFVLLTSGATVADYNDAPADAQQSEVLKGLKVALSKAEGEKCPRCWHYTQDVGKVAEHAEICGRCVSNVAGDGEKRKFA

## CC[C@H](C)[C@H](N)C(=O)NS(=O)(=O)OC[C@H]1O[C@@H](CCn2nnc(-c3ccc(Oc4ccccc4)cc3)n2)[C@H](O)[C@@H]1O [Compound X, [S-(R*,R*)]-3,6-anhydro-1,2-dideoxy-1-[5-(4-phenoxyphenyl)-2H-tetrazol-2-yl]-D-allo-heptitol 7-(2-amino-3-methyl-1-oxopentyl)sulfamate]
[1]
  Protective %: 0%
[1]; of 5 mice
  Number of Alive: 0
[2]
  MIC: 0.5 µg/mL (≈ 0.847 µM)
[3]
  MIC: 25 µg/mL (≈ 42.3 µM)
[4]
  MIC: 10 µg/mL (≈ 16.9 µM)
[5]; 4 mg/kg sc
  Protective %: 0%
  Number of Alive: 0
[5]; 20 mg/kg sc
  Protective %: 80%
  Number of Alive: 4
[5]; 100 mg/kg sc
  Protective %: 100%
  Number of Alive: 5
[5]; Streptococcus pyogenes, 168 h, sc, mice surviving 7 days after inoculation, multidrug resistant, read-out: PD50 (50% protective dose)
  ED50: 16.5 mg/kg
[6]
  IC50: 1.3 nM
